The structures appear in SMILES notation.

The values that follow come from patent US7737305B2, “Sulfonic acid polyol compound, polyurethane resin, polyurethane resin for magnetic recording medium, and magnetic recording medium” (FUJIFILM Corporation, priority 2007, dated 2010).

Data set [1] is described as follows: Solubility test in cyclohexanone (residue after dissolution). To be noted: 1 part by weight in 5 parts by weight of cyclohexanone, 40° C., 3 hours, ultrasonic waves, filtered. The data set is classed as physicochemical. As to the method:
(1-2) Solubility Test Method
1 part by weight of sulfonic acid (salt) diol compound was added to 5 parts by weight of cyclohexanone, and dissolution was carried out at 40° C. for 3 hours using ultrasonic waves. A solution thus obtained was filtered, and the presence/absence of a residue after dissolution was checked.

The conditions of data set [2]: background statement; cited from earlier work.

As to `O=S(=O)([O-])CCN(CCO)CCO.[Li+]`, the “presence/absence of a residue after dissolution” value (from here on “presence/absence of a residue”) in data set [1] was “a residue was found”. Regarding `O=S(=O)([O-])CCN(CCO)CCO.[K+]`, in data set [1], the “presence/absence of a residue” value is reported as “a residue was found”. The same measure, in the same setting: as for `O=S(=O)([O-])CCN(CCO)CCO.[Na+]`, the entry is “a residue was found”. Regarding `O=S(=O)(O)CCN(CCO)CCO` [N,N-bis(2-hydroxyethyl)-2-aminoethanesulfonic acid], in data set [2], the “solubility in organic solvents” value was “does not dissolve in organic solvents”. In data set [1], the “presence/absence of a residue” value was “a residue was found”.
